What follows are molecules tested against SMYD3 (Homo sapiens (Human), UniProt Q9H7B4) (assay: SMYD3 biochemical assay (SMYD3 enzyme assay on MEKK2 protein substrate, 3H-SAM scintillation proximity assay)). Conditions: read-out: SMYD3 Biochem IC50.
Outline: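 Detection used scintillation proximity beads to capture ³H-methylated GST-MEKK2 after quench with 100 uM final cold SAM. The reaction was started by SAM/MEKK2 addition after a 30 min RT compound–enzyme preincubation. Enzyme was tag-free full-length human SMYD3 from E. coli, in buffer of 25 mM Tris-Cl pH 8.0, 1 mM TCEP, 0.005% BSG, 0.005% Tween 20.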

Chain of SMYD3 (Q9H7B4 whole entry): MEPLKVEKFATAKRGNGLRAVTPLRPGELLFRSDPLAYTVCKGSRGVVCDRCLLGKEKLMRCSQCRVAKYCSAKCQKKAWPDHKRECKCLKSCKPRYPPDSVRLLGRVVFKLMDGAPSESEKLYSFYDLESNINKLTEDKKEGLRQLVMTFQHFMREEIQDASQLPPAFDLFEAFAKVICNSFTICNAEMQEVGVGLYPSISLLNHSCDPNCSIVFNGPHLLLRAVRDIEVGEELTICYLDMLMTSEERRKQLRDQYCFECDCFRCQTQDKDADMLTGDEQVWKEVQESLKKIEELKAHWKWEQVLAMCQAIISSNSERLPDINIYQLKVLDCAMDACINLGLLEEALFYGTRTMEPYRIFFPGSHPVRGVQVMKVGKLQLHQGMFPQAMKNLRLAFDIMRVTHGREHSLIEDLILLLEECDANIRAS

SMILES | IC50 [µM]
Cc1n[nH]c(C)c1C(=O)N[C@H]1CC[C@H](N)CC1 [compound 182, N-((1r,4r)-4-aminocyclohexyl)-3,5-dimethyl-1H-pyrazole-4-carboxamide] | > 100
Cc1ncc(C(=O)NC(C)C2CCN(C(=O)[C@H](C)N)CC2)cn1 (stereo partly drawn) [compound 183, N-(1-(1-(L-alanyl)piperidin-4-yl)ethyl)-2-methylpyrimidine-5-carboxamide] | > 100
Cc1ncc(C(=O)N[C@H]2CC[C@H](NC(=O)CCN)CC2)cn1 [compound 184, N-((1r,4r)-4-(3-aminopropanamido)cyclohexyl)-2-methylpyrimidine-5-carboxamide] | 35.8
Cc1cnc(C(=O)NC(C)C2CCN(C(=O)[C@H](C)N)CC2)cn1 (stereo partly drawn) [compound 185, N-(1-(1-(L-alanyl)piperidin-4-yl)ethyl)-5-methylpyrazine-2-carboxamide] | > 100
Cc1cnc(C(=O)N[C@H]2CC[C@H](N)CC2)cn1 [compound 186, N-((1r,4r)-4-aminocyclohexyl)-5-methylpyrazine-2-carboxamide] | > 100
CC(NC(=O)c1ccnc(N)c1)C1CCN(C(=O)[C@H](C)N)CC1 (stereo partly drawn) [compound 187, N-(1-(1-(L-alanyl)piperidin-4-yl)ethyl)-2-aminoisonicotinamide] | > 100
CC(NC(=O)c1nccnc1N)C1CCN(C(=O)[C@H](C)N)CC1 (stereo partly drawn) [compound 188, N-(1-(1-(L-alanyl)piperidin-4-yl)ethyl)-3-aminopyrazine-2-carboxamide] | > 100
CC(NC(=O)c1ccc(-c2ccccc2)cc1)C1CCN(C(=O)[C@H](C)N)CC1 (stereo partly drawn) [compound 189, N-(1-(1-(L-alanyl)piperidin-4-yl)ethyl)-[1,1′-biphenyl]-4-carboxamide] | > 100
NS(=O)(=O)c1ccc(C(=O)N[C@H]2CC[C@H](N)CC2)cc1 [compound 190, N-((1r,4r)-4-aminocyclohexyl)-4-sulfamoylbenzamide] | > 100
CC(NC(=O)c1ccc(O)nn1)C1CCN(C(=O)[C@H](C)N)CC1 (stereo partly drawn) [compound 191, N-(1-(1-(L-alanyl)piperidin-4-yl)ethyl)-6-hydroxypyridazine-3-carboxamide] | > 100
N[C@H]1CC[C@H](NC(=O)c2ccc3[nH]ccc3c2)CC1 [compound 192, N-((1r,4r)-4-aminocyclohexyl)-1H-indole-5-carboxamide] | > 100
CC(NC(=O)c1ccc2nc[nH]c2c1)C1CCN(C(=O)[C@H](C)N)CC1 (stereo partly drawn) [compound 193, N-(1-(1-(L-alanyl)piperidin-4-yl)ethyl)-1H-benzo[d]imidazole-6-carboxamide] | > 100
CC(NC(=O)c1ccc2cnccc2c1)C1CCN(C(=O)[C@H](C)N)CC1 (stereo partly drawn) [compound 194, N-(1-(1-(L-alanyl)piperidin-4-yl)ethyl)isoquinoline-6-carboxamide] | > 100
NCCC(=O)N[C@H]1CC[C@H](NC(=O)Cc2c[nH]c3ccccc23)CC1 [compound 195, N-((1r,4r)-4-(2-(1H-indol-3-yl)acetamido)cyclohexyl)-3-aminopropanamide] | > 100
NCCC(=O)N[C@H]1CC[C@H](NC(=O)c2nccc3ccccc23)CC1 [compound 196, N-((1r,4r)-4-(3-aminopropanamido)cyclohexyl)isoquinoline-1-carboxamide] | > 100
N[C@H]1CC[C@H](NC(=O)c2nccc3ccccc23)CC1 [compound 197, N-((1r,4r)-4-aminocyclohexyl)isoquinoline-1-carboxamide] | > 100
CC(NC(=O)c1cc2cc(F)ccc2[nH]1)C1CCN(C(=O)[C@H](C)N)CC1 (stereo partly drawn) [compound 198, N-(1-(1-(L-alanyl)piperidin-4-yl)ethyl)-5-fluoro-1H-indole-2-carboxamide] | 41.7
CC(NC(=O)c1cc(O)nc2ccccc12)C1CCN(C(=O)[C@H](C)N)CC1 (stereo partly drawn) [compound 199, N-(1-(1-(L-alanyl)piperidin-4-yl)ethyl)-2-hydroxyquinoline-4-carboxamide] | > 100

SMILES | IC50 [µM]
NCCC(=O)N[C@H]1CC[C@H](NC(=O)c2cc(O)nc3ccccc23)CC1 [compound 200, N-((1r,4r)-4-(3-aminopropanamido)cyclohexyl)-2-hydroxyquinoline-4-carboxamide] | 23.3
N[C@H]1CC[C@H](NC(=O)c2cc(O)nc3ccccc23)CC1 [compound 201, N-((1r,4r)-4-aminocyclohexyl)-2-hydroxyquinoline-4-carboxamide] | > 100
CC(NC(=O)c1ccc2c(c1)CCCC2)C1CCN(C(=O)[C@H](C)N)CC1 (stereo partly drawn) [compound 202, N-(1-(1-(L-alanyl)piperidin-4-yl)ethyl)-5,6,7,8-tetrahydronaphthalene-2-carboxamide] | 59
NCCC(=O)N[C@H]1CC[C@H](NC(=O)c2ccc3c(c2)CCCC3)CC1 [compound 203, N-((1r,4r)-4-(3-aminopropanamido)cyclohexyl)-5,6,7,8-tetrahydronaphthalene-2-carboxamide] | 11.2
N[C@H]1CC[C@H](NC(=O)c2ccc3c(c2)CCCC3)CC1 [compound 204, N-((1r,4r)-4-aminocyclohexyl)-5,6,7,8-tetrahydronaphthalene-2-carboxamide] | 47.4
CC(NC(=O)c1cnccn1)C1CCN(C(=O)[C@H](C)N)CC1 (stereo partly drawn) [compound 205, N-(1-(1-(L-alanyl)piperidin-4-yl)ethyl)pyrazine-2-carboxamide] | > 100
CC(NC(=O)Cc1ccc(F)cc1)C1CCN(C(=O)[C@H](C)N)CC1 (stereo partly drawn) [compound 206, N-(1-(1-(L-alanyl)piperidin-4-yl)ethyl)-2-(4-fluorophenyl)acetamide] | > 100
NCCC(=O)N[C@H]1CC[C@H](NC(=O)Cc2ccc(F)cc2)CC1 [compound 207, 3-amino-N-((1r,4r)-4-(2-(4-fluorophenyl)acetamido)cyclohexyl)propanamide] | > 100
N[C@H]1CC[C@H](NC(=O)Cc2ccc(F)cc2)CC1 [compound 208, N-((1r,4r)-4-aminocyclohexyl)-2-(4-fluorophenyl)acetamide] | > 100
CC(NC(=O)c1cc[n+]([O-])cc1)C1CCN(C(=O)[C@H](C)N)CC1 (stereo partly drawn) [compound 209, 4-((1-(1-(L-alanyl)piperidin-4-yl)ethyl)carbamoyl)pyridine 1-oxide] | > 100
N[C@H]1CC[C@H](NC(=O)c2cc[n+]([O-])cc2)CC1 [compound 210, 4-(((1r,4r)-4-aminocyclohexyl)carbamoyl)pyridine 1-oxide] | > 100
Nc1ccnc2ccc(C(=O)N[C@H]3CC[C@H](N)CC3)cc12 [compound 211, 4-amino-N-((1r,4r)-4-aminocyclohexyl)quinoline-6-carboxamide] | 43.7
CC(NC(=O)c1ccc2nccc(N)c2c1)C1CCN(C(=O)[C@H](C)N)CC1 (stereo partly drawn) [compound 212, N-(1-(1-(L-alanyl)piperidin-4-yl)ethyl)-4-aminoquinoline-6-carboxamide] | 15.2
O=C1Cc2cc(C(=O)NC[C@@H]3CCNC3)ccc2N1 [compound 213, (R)-2-oxo-N-(pyrrolidin-3-ylmethyl)indoline-5-carboxamide] | 17.9
CN(C(=O)CN)C1CCC(NC(=O)c2ccc3c(c2)CC(=O)N3)CC1 (centres unmarked) [compound 214, N-(4-(2-amino-N-methylacetamido)cyclohexyl)-2-oxoindoline-5-carboxamide] | 1.25
Cc1cnc(C(=O)N[C@H]2CC[C@H](NC(=O)CCN)CC2)cn1 [compound 215, N-((1r,4r)-4-(3-aminopropanamido)cyclohexyl)-5-methylpyrazine-2-carboxamide] | > 100
Cc1nn(C(C)C(=O)NC(C)C2CCN(C(=O)[C@H](C)N)CC2)c(C)c1Br (stereo partly drawn) [compound 216, N-(1-(1-(L-alanyl)piperidin-4-yl)ethyl)-2-(4-bromo-3,5-dimethyl-1H-pyrazol-1-yl)propanamide] | > 100

Same assay, conditions: read-out: SMYD3 Biochem IC50 (μM)*

SMILES | IC50 [µM]
N[C@H]1CC[C@H](NC(=O)c2n[nH]c3ccccc23)CC1 [compound 172, N-((1r,4r)-4-aminocyclohexyl)-1H-indazole-3-carboxamide] | > 100
NCC(=O)N[C@H]1CC[C@H](NC(=O)c2ccc3c(c2)CC(=O)N3)CC1 [compound 174, N-((1r,4r)-4-(2-aminoacetamido)cyclohexyl)-2-oxoindoline-5-carboxamide] | 0.63
CC(N)C(=O)N[C@H]1CC[C@H](NC(=O)c2ccc3c(c2)CC(=O)N3)CC1 (some centres unmarked) [compound 175, N-((1r,4r)-4-(2-aminopropanamido)cyclohexyl)-2-oxoindoline-5-carboxamide] | 0.42
C[C@H](N)C(=O)N1CCC(C)(CNC(=O)c2ccc3c(c2)CC(=O)N3)CC1 [compound 176, N-((1-(L-alanyl)-4-methylpiperidin-4-yl)methyl)-2-oxoindoline-5-carboxamide] | 3.52
C[C@@H](N)C(=O)N1CC[C@H](CNC(=O)c2ccc3c(c2)CC(=O)N3)C1 [compound 177, N-(((R)-1-(D-alanyl)pyrrolidin-3-yl)methyl)-2-oxoindoline-5-carboxamide] | 19.8
CN(C(=O)CCN)C1CCC(NC(=O)c2ccc3c(c2)CC(=O)N3)CC1 (centres unmarked) [compound 178, N-(4-(3-amino-N-methylpropanamido)cyclohexyl)-2-oxoindoline-5-carboxamide] | 3.4
Cc1nc(-c2ccc(C(=O)NC(C)C3CCN(C(=O)[C@H](C)N)CC3)cc2)no1 (stereo partly drawn) [compound 179, N-(1-(1-(L-alanyl)piperidin-4-yl)ethyl)-4-(5-methyl-1,2,4-oxadiazol-3-yl)benzamide] | > 100
Cc1n[nH]c(C)c1C(=O)NC(C)C1CCN(C(=O)[C@H](C)N)CC1 (stereo partly drawn) [compound 180, N-(1-(1-(L-alanyl)piperidin-4-yl)ethyl)-3,5-dimethyl-1H-pyrazole-4-carboxamide] | > 100
Cc1n[nH]c(C)c1C(=O)N[C@H]1CC[C@H](NC(=O)CCN)CC1 [compound 181, N-((1r,4r)-4-(3-aminopropanamido)cyclohexyl)-3,5-dimethyl-1H-pyrazole-4-carboxamide] | > 100

Source: patent US10266526B2, “Substituted 1,2,3-triazoles as SMYD inhibitors for treating cancer” (EPIZYME, INC., priority 2014, dated 2019)
